The text below walks through data of patent publication US4824941A, “Specific antibody to the native form of 2'5'-oligonucleotides, the method of preparation and the use as reagents in immunoassays or for binding 2'5'-oligonucleotides in biological systems” (priority 1988, dated 1989).

A value given as a limit tells only on which side of the number the result lay.

In assay [1] the target is specific antibody to 2'5'-oligo(A). The experiment in a line: Competitive binding radio-immune assay (inhibition of binding of [32P]-labelled 2'5'A tetramer pCp probe to antibody, nitrocellulose filter). As to conditions: 25 μl, 0°, 1 hr; [32P] 2'5'A tetramer pCp probe. The protocol: The titers of the antisera are determined from the reciprocal of the dilution which gives 50% retention of the radioactivity to a nitrocellulose filter. The antiserum dilution is incubated in 25 μl of 20 mM KOAc, 10 mM HEPES-KOH, pH 7.4, 1.5 mM Mg(OAc)2 containing 1 mg/ml bovine serum albumin (BSA) and 5-6000 cpm of [^32 P] terminally labelled 2'5'A tetramer pCp (Amersham International: specific activity, approximately 3000 Ci/mmole). After incubation at 0° for 1 hr, the mixtures are diluted with 3 ml of ice cold 90 mM KCl, 20 mM Tris-HCl, pH 7.6 and passed through 25 mm discs of nitrocellulose (Millipore, type HAWP, 0.45 μ) with a filtration apparatus. The filters are washed with a further 2 portions of the same buffer, and retained radioactivity counted by Cerenkov radiation in a scintillation counter.
In the simple radio-immune assay described in Example 2, the unknown is determined by dilution of the radioactivity bound from the constant amount of known radioactive probe. […] This inhibition is a measure of the affinity of the related compound for the antibody, and will also indicate to what extent such compounds might interfere with the assay, if present in the material being analysed. […] A collection of 2'5'-adenylates and related compounds were prepared as follows. The dimer, trimer, tetramer and pentamer were obtained from the DEAE-cellulose fractionation of example 1. The tetramer was partially digested with bacterial alkaline phosphatase and the products separated by high performance liquid chromatography on a Partisil SAX column (Whatman), with 10 mM potassium phosphate buffer, pH 6.8, 20% ethanol and a gradient from 10 to 500 mM KCl. Acetyl and succinyl derivatives of the tetramer were obtained by reaction with acetic and succinic anhydride, according to the method of Example 1. Other compounds were from commercial sources.

The subject of assay [2] is 2'5'-oligo(A) synthetase. The following applies: source of value not given; read-out: Km of the enzyme; cited from earlier work.
Assay [3] deals with 2'5'-oligo(A) synthetase. The experiment in a line: 2'5'-oligo(A) synthetase in 3T3 cells, conventional assay ([3H]-ATP to [3H]-2'5'-oligo(A)). The class given is cell-based, Swiss mouse. As to conditions: 3T3 cells treated overnight; 10 μM prostaglandin F2α or 100 u/ml interferon; none 556, background (197). From the text:
(§1) Because of the extremely efficient reaction condition of cell-free systems, it is possible to assay low levels of 2'5'-oligo(A) synthetase. However, it is sometimes desirable to measure low levels from extremely small amounts of precious starting material. By coupling the extremely sensitive measurement of 2'5'-oligo(A) according to the methods of the present invention, with the enzymatic assay for 2'5'-oligo(A) polymerase, the enzyme can be determined with 10^5 -fold higher sensitivity than was previously possible. In the example, Swiss mouse 3T3 fibroblast cells are stimulated into a cell cycle by a variety of hormones and factors (for literature on this subject see the article "Criteria for the establishment of the biological significance of ribosomal protein phosphorylation" in Current Topics in Cellular Regulation, volume 21, 1982, pages 89-99, by J. Gordon, P. J. Nielsen, K. L. Manchester, H. Towbin, L. Jimenez de Asua and G. Thomas). […] One portion (198 μl) is analysed for conversion of the ATP to 2'5'-oligo(A) from the retention of radioactivity on an analytical DEAE cellulose column (see example 4). The other portion (2 μl) is diluted in the range 250 to 10,000-fold and the 2'5'-oligo(A) determined by the radioimmune assay (see example 3).

In assay [4] the test system is 2'5'-oligo(A) synthetase. As to the kind of experiment: 2'5'-oligo(A) synthetase in 3T3 cells, radio-immune assay of reaction product. It is filed as cell-based, Swiss mouse. The following applies: 3T3 cells treated overnight; 10 μM prostaglandin F2α or 100 u/ml interferon; none 50, background 0.
Description: as §1

For assay [5], the system named is Friend mouse erythroleukemia cells (FBU). As to the kind of experiment: 2'5'-oligo(A) levels in differentiating Friend erythroleukemia cells, clone FBU. The class given is cell-based. The following applies: 2% (v/v) DMSO. Here is the method:
This is an example for cells growing in culture, but is universally applicable to any biological material: cell cultures, organs, tissues, bodily fluids such as blood, urine, cerebrospinal fluids, milk or any other suitably available material. Cells in a petri dish are rapidly washed with buffered saline (this step is dispensed with in the case of bodily fluids), then enough ice cold 5% trichloracetic acid (TCA) to cover the layer of cells (3 ml for a 7 cm diameter petri dish) and the dish is kept on ice for 5 min. The TCA and detached cells are removed and centrifuged to remove the insoluble material, and the dish and pellet are re-extracted with a similar volume of 5% TCA and the supernatants pooled. Alternatively, in the case of a cell suspension culture, the cells are pelleted by centrifugation at room temperature, the cells resuspended in a volume of buffered saline equal to the volume of the pellet, and approximately 10 volumes of 5% TCA are added. The insoluble material is removed by centrifugation and the pellet extracted with 1/2 the previous volume of 5% TCA. The supernatants are pooled. All operations with TCA are performed between 0° C. and 5° C. The pooled supernatants are freed of TCA by extraction with an equal volume of 30% (v/v) tri-N-octylamine in Freon 113 (Dow Chemicals). The upper aqueous phase is collected and the Freon phase re-extracted with 1/2 the preceeding volume of distilled water. Since biological material may contain ATP in the mM range, and it is desirable to measure 2'5'-oligo(A) in the nM range, it may be desirable to remove such 10^6 -fold excess of ATP, which might interfere with the assay. […]
Friend mouse erythroleukemia cells can be induced to differentiate and become erythropoietic under the influence of a variety of reagents, especially dimethylsulfoxide. […] The 2'5'-oligo(A) content is determined from the reduction of the binding of the [^32 P] labelled probe as in example 2 and 3.

For assay [6], the system named is Friend mouse erythroleukemia cells (N46AP). As to the kind of experiment: 2'5'-oligo(A) levels in differentiating Friend erythroleukemia cells, clone N46AP. The class given is cell-based. The following applies: 1.4% (v/v) DMSO. Here is the method: This is an example for cells growing in culture, but is universally applicable to any biological material: cell cultures, organs, tissues, bodily fluids such as blood, urine, cerebrospinal fluids, milk or any other suitably available material. Cells in a petri dish are rapidly washed with buffered saline (this step is dispensed with in the case of bodily fluids), then enough ice cold 5% trichloracetic acid (TCA) to cover the layer of cells (3 ml for a 7 cm diameter petri dish) and the dish is kept on ice for 5 min. The TCA and detached cells are removed and centrifuged to remove the insoluble material, and the dish and pellet are re-extracted with a similar volume of 5% TCA and the supernatants pooled. Alternatively, in the case of a cell suspension culture, the cells are pelleted by centrifugation at room temperature, the cells resuspended in a volume of buffered saline equal to the volume of the pellet, and approximately 10 volumes of 5% TCA are added. The insoluble material is removed by centrifugation and the pellet extracted with 1/2 the previous volume of 5% TCA. The supernatants are pooled. All operations with TCA are performed between 0° C. and 5° C. The pooled supernatants are freed of TCA by extraction with an equal volume of 30% (v/v) tri-N-octylamine in Freon 113 (Dow Chemicals). The upper aqueous phase is collected and the Freon phase re-extracted with 1/2 the preceeding volume of distilled water. Since biological material may contain ATP in the mM range, and it is desirable to measure 2'5'-oligo(A) in the nM range, it may be desirable to remove such 10^6 -fold excess of ATP, which might interfere with the assay. The ATP and other nucleotides which might interfere with the assay may then be removed chromatographically with DEAE cellulose (Whatman DE-52) equilibrated with 125 mM NH4 HCO3 (pH 7.8). The loading ratio is the same as for the preparative columns of example 1, but microcolumns of 200 μl are optimal for this analytical scale. The column is washed with 15 ml of the same buffer to remove the ATP and other unbound material. The 2'5'-oligo(A) is eluted with 2 ml of 0.5M NH4 HCO3, and the samples are lyophilized after addition of 1/10th volume of ethanol. The samples may be stored indefinitely in anhydrous form and re-dissolved with suitable volumes of solvent for the radio-immuno assay as described in example 3.
Friend mouse erythroleukemia cells can be induced to differentiate and become erythropoietic under the influence of a variety of reagents, especially dimethylsulfoxide. Such cells are also known to produce the enzyme 2'5'-oligo(A) synthetase. Before the method of the present invention, it was not possible to determine the 2'5'oligo(A) directly in these cells. The determination is described in this example. The Friend cells (clone FBU or N46AP) are grown in Dulbecco's modified Eagle's Medium containing 10% fetal calf serum, 2% (v/v) dimethylsulfoxide for FBU or 1.4% (v/v) DMSO for N46 AP and 1 mM glutamine. The cells are diluted with the same medium daily to maintain a density of 5.10^5 cells per ml. At various times, 30 ml cultures are collected and processed as described in the preceeding example. The lyophilized material is dissolved in the buffer corresponding to the reaction mixture for the assay, as in example 2, but containing 0.1 mg/ml of bovine serum albumin. The 2'5'-oligo(A) content is determined from the reduction of the binding of the [^32 P] labelled probe as in example 2 and 3.

Consider “5'-(phospho)3 (adenylyl 2'-5')2 adenosine [pppA(2'p5'A)2]”, for which, in assay [1], the “amount giving 50% inhibition of the maximal binding of the [^32 P]-labelled probe” value stood at 2.5 fmol.
Consider `Nc1ncnc2c1ncn2[C@@H]1O[C@H](COP(=O)(O)O)[C@@H](O)[C@H]1O` [AMP], for which the “amount giving 50% inhibition of the maximal binding of the [^32 P]-labelled probe” value in assay [1] is recorded as > 3,000,000 fmoles.
Still for that read-out and setting: to `O=c1ccn([C@@H]2O[C@H](COP(=O)(O)OP(=O)(O)OP(=O)(O)O)[C@@H](O)[C@H]2O)c(=O)[nH]1` [UTP] belongs > 3,000,000 fmoles.
On the same count and under the same terms, to `NC(=O)C1=CN([C@@H]2O[C@H](COP(=O)(O)OP(=O)(O)OC[C@H]3O[C@@H](n4cnc5c(N)ncnc54)[C@H](O)[C@@H]3O)[C@@H](O)[C@H]2O)C=CC1` [NADH] belongs > 3,000,000 fmoles.
In general, Km refers to the concentration of substrate that gives half-maximal velocity. As for `Nc1ncnc2c1ncn2[C@@H]1O[C@H](COP(=O)(O)OP(=O)(O)OP(=O)(O)O)[C@@H](O)[C@H]1O` [ATP], the “amount giving 50% inhibition of the maximal binding of the [^32 P]-labelled probe” value in assay [1] is on record as > 3,000,000 fmoles. In the assay with 2'5'-oligo(A) synthetase [2], the Km is ~1000 µM.
`Nc1ccn([C@@H]2O[C@H](COP(=O)(O)OP(=O)(O)OP(=O)(O)O)[C@@H](O)[C@H]2O)c(=O)n1` [CTP]: in assay [1], the “amount giving 50% inhibition of the maximal binding of the [^32 P]-labelled probe” value is > 3,000,000 fmoles.
Regarding `Nc1nc2c(ncn2[C@@H]2O[C@H](COP(=O)(O)OP(=O)(O)OP(=O)(O)O)[C@@H](O)[C@H]2O)c(=O)[nH]1` [GTP], the “amount giving 50% inhibition of the maximal binding of the [^32 P]-labelled probe” value in assay [1] is > 3,000,000 fmoles.
With `CCCCC[C@H](O)/C=C/[C@@H]1[C@@H](C/C=C\CCCC(=O)O)[C@@H](O)C[C@H]1O` [prostaglandin F2α], in the assay with 2'5'-oligo(A) synthetase [3], the “[^3 H]-ATP→[^3 H]-2'5'-oligo(A)” value is on record as 632 cpm/assay. The “Radio-immune assay for 2'5'-oligo(A)” value in the assay on 2'5'-oligo(A) synthetase [4] is on record as 100 pmoles/assay.
In the case of `Nc1ccn([C@@H]2O[C@H](COP(=O)(O)O)[C@@H](OP(=O)(O)O)[C@H]2O)c(=O)n1` [pCp], the “amount giving 50% inhibition of the maximal binding of the [^32 P]-labelled probe” value in assay [1] was > 3,000,000 fmoles.
Turning to `C[S+](C)[O-]` [DMSO, dimethylsulfoxide], the “2'5'-oligo(A)” value in assay [5] (day 1 post-DMSO (day 0: 2.6)) came to 28 fmoles/10^6 cells; in assay [5] (day 2 post-DMSO) it was 28 fmoles/10^6 cells; in assay [5] (day 4 post-DMSO) it was 20 fmoles/10^6 cells; in assay [6] (day 1 post-DMSO (day 0: 7.5)), 7.8 fmoles/10^6 cells; in assay [6] (day 2 post-DMSO), 4.3 fmoles/10^6 cells; in assay [6] (day 3 post-DMSO), 17.5 fmoles/10^6 cells. For the same molecule, the figures for the “2'5'-oligo(A)” value in assay [6] (day 5 post-DMSO) and in assay [6] (day 6 post-DMSO) were 63 fmoles/10^6 cells and 53 fmoles/10^6 cells, respectively.
Take `Nc1ncnc2c1ncn2[C@@H]1O[C@H](COP(=O)(O)OP(=O)(O)O)[C@@H](O)[C@H]1O` [ADP]: the “amount giving 50% inhibition of the maximal binding of the [^32 P]-labelled probe” value in assay [1] is listed as > 3,000,000 fmoles.
Same read-out and setting: to pA(2'p5'A)3 belongs 25 fmol.
